In patent publication US9925189B2, “Heterocyclic receptor agonists for the treatment of diabetes and metabolic disorders” (CymaBay Therapeutics, Inc., priority 2006, dated 2018):

molecular target: T1, IC-GPCR2 (Homo sapiens, UniProt Q8TDV5, S309L); assay: Stimulation of cAMP in CHO cells stably expressing IC-GPCR2 (HTRF cAMP assay); type: cell-based; details: 0.5 h, 30 minutes, IC-GPCR2 stably expressing CHO cells, read-out: Activity at 10 uM (% change in FRET signal from DMSO control)
T1 construct: expressed in transfected cells
T1 sequence (Q8TDV5 1-335 S309L): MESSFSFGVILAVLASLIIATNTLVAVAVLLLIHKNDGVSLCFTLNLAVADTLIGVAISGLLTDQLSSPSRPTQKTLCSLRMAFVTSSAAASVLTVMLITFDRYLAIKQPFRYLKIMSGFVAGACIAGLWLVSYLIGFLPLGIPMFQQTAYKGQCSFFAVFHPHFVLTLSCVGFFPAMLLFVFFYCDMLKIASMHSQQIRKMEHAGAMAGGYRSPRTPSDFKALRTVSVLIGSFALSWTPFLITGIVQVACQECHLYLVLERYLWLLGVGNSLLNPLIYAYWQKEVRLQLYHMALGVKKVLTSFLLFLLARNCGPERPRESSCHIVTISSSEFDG
Description: This assay was developed using a stable cell line expressing IC-GPCR-2, generated as follows. IC-GPCR2 (SEQ ID NO:1) was cloned into Gateway pDEST 40vector (Invitrogen), using the Gateway cloning system (invitrogen) according to the manufacturer's instructions. A stable cell line was generated by transfecting a 10 cm plate of CHO cells (source) with 8 ug of this construct using Transit-CHO transfection kit (Mirus). CHO cells were plated the day prior to transfection at a density of 3,000,000 cells/plate. Clones were selected using the antibiotic G418 at 500 ug/ml. 23 clones were picked and assayed for the expression of the receptor by measuring changes in intracellular cAMP levels in response to an IC-GPCR2 agonist.
To measure cAMP activity in response to IC-GPCR2 agonist, the clones were plated in 96 well plates at 17500 cells per well. On the day after plating, cells were incubated with the IC-CPCR2 agonist at […] for 30 minutes in Ham's F12 Media (Gibco) with 0.04% DMSO. cAMP was measured using the cAMP dynamic kit from Cis Bio (Bedford, Mass.) according to the manufacturer's instructions. Briefly, cells were lysed, and cAMP levels determined by competitive immunoassay using D2 labeled cAMP, and europium cryptate tagged anti cAMP antibody. When in close proximity, the D2 and europium cryptate undergo fluorescence resonance energy transfer (FRET), which is measured as a fluorescence ratio (665 nm/620 nm). Unlabelled cAMP in the cell lysate competed with the D2 labeled cAMP for the europium crypate labeled antibody. The resulting decrease in FRET signal corresponded to intracellular cAMP levels. Fluorescence was read on a BMG Labtech PHERAstar, software version 1.50.
Compounds were dissolved in 100% DMSO to a concentration of […] to provide stock solutions. To determine activity against IC-GPCR2, compounds were incubated with IC-GPCR2 stably expressing cells (described above), at 6-8 concentrations ranging from 0.00003 to 10 micromolar, in 96 well plates, in 50 ul of Hams F12 media for 30 minutes. Cells were plated at 17500 cells per well 1 day before running the assay. All compounds were also screened against the parental CHO cells. cAMP was measured using the cAMP dynamic kit from Cis Bio (Bedford, Mass.), according to the manufacturer's instructions. Briefly, cells were lysed and cAMP levels determined by competitive immunoassay using D2 labeled cAMP, and europium cryptate tagged anti cAMP antibody. When in close proximity, the D2 and europium cryptate undergo fluorescence resonance energy transfer (FRET), which is measured as a fluorescence ratio (665 nm/620 nm). Unlabelled cAMP in the cell lysate competed with the D2 labeled cAMP for the europium crypate labeled antibody. The resulting decrease in FRET signal corresponded to intracellular cAMP levels.
Activities of compounds disclosed in Table 1 and Table 2 below are expressed as the % change in FRET signal from DMSO control. “*” no activity observed when tested at 10 micromolar but no higher concentrations were tested. NT indicates the compound was not tested at the indicated concentration.

Structure (SMILES)	activation at 10 µM
Fc1cnc(N2CCC(c3nc(COc4ccc(-n5cnnn5)cc4)cs3)CC2)nc1 [Example 55, 5-Fluoro-2-{4-[4-(4-tetrazol-1-yl-phenoxymethyl)-thiazol-2-yl]-piperidin-1-yl}-pyrimidine]	66%
Cc1cnc(N2CCC(c3nc(COc4ccc(-n5cnnn5)cc4)cs3)CC2)nc1Cl [Example 57, 4-Chloro-5-methyl-2-{4-[4-(4-tetrazol-1-yl-phenoxymethyl)-thiazol-2-yl]-piperidin-1-yl}-pyrimidine]	7%
Clc1ccc(-c2cnc(N3CCC(c4nc(COc5ccc(-n6cnnn6)cc5)cs4)CC3)nc2)cc1 [Example 59]	70%
Clc1cnc(N2CCC(c3nc(COc4ccc(-n5cnnn5)cc4)cs3)CC2)nc1 [Example 60]	60%
COc1ccc(-c2cnc(N3CCC(c4nc(COc5ccc(-n6cnnn6)cc5)cs4)CC3)nc2)cc1 [Example 66, 5-(4-Methoxy-phenyl)-2-{4-[4-(4-tetrazol-1-yl-phenoxymethyl)-thiazol-2-yl]-piperidin-1-yl}-pyrimidine]	57%
COc1cnc(N2CCC(c3nc(COc4ccc(-n5cnnn5)cc4)cs3)CC2)nc1 [Example 68, 5-Methoxy-2-{4-[4-(4-tetrazol-1-yl-phenoxymethyl)-thiazol-2-yl]-piperidin-1-yl}-pyrimidine]	53%
Cc1ccc(N2CCC(c3nc(COc4ccc(-n5cnnn5)cc4)cs3)CC2)nc1 [Example 69, 5′-Methyl-4-[4-(4-tetrazol-1-yl-phenoxymethyl)-thiazol-2-yl]-3,4,5,6-tetrahydro-2H-[1,2′]bipyridinyl]	74%
FC(F)(F)c1ccc(N2CCC(c3nc(COc4ccc(-n5cnnn5)cc4)cs3)CC2)nc1 [Example 71, 4-[4-(4-Tetrazol-1-yl-phenoxymethyl)-thiazol-2-yl]-5′-trifluoromethyl-3,4,5,6-tetrahydro-2H-[1,2′]bipyridinyl]	88%
O=Cc1ccc(N2CCC(c3nc(COc4ccc(-n5cnnn5)cc4)cs3)CC2)nc1 [Example 72, 4-[4-(4-Tetrazol-1-yl-phenoxymethyl)-thiazol-2-yl]-3,4,5,6-tetrahydro-2H-[1,2′]bipyridinyl-5′-carbaldehyde]	78%
CS(=O)(=O)c1ccc(OCc2csc(C3CCN(c4nc5ccccc5o4)CC3)n2)cc1 [Example 74, 2-{4-[4-(4-Methanesulfonyl-phenoxymethyl)-thiazol-2-yl]-piperidin-1-yl}-benzooxazole]	17%
CCc1cnc(N2CCC(c3nc(COc4ccc(S(C)(=O)=O)cc4F)cs3)CC2)nc1 [Example 76, 5-Ethyl-2-{4-[4-(2-fluoro-4-methanesulfonyl-phenoxymethyl)-thiazol-2-yl]-piperidin-1-yl}-pyrimidine]	74%
CC(C)(C)OC(=O)N1CCC(C)(c2nc(COc3ccc(S(C)(=O)=O)cc3)cs2)CC1 [Example 78, 4-[4-(4-Methanesulfonyl-phenoxymethyl)-thiazol-2-yl]-4-methyl-piperidine-1-carboxylic acid tert-butyl ester]	43%
CC(C)(C)OC(=O)N1CCC(c2nc(COc3ccc(S(C)(=O)=O)cc3)no2)CC1 [Example 81, 4-[3-(4-Methanesulfonyl-phenoxymethyl)-[1,2,4]oxadiazol-5-yl]-piperidine-1-carboxylic acid tert-butyl ester]	59%
CC(C)(C)OC(=O)N1CCC(c2noc(COCc3ccccc3)n2)CC1 [Example 83, 4-(5-Benzyloxymethyl-[1,2,4]oxadiazol-3-yl)-piperidine-1-carboxylic acid tert-butyl ester]	27%
CCc1cnc(N2CCC(c3nc(COc4ccc(S(C)(=O)=O)cc4)no3)CC2)nc1 [Example 84, 5-Ethyl-2-{4-[3-(4-methanesulfonyl-phenoxymethyl)-[1,2,4]oxadiazol-5-yl]-piperidin-1-yl}-pyrimidine]	59%
CC(C)(C)OC(=O)N1CCC(O)(c2nc(COc3ccc(S(C)(=O)=O)cc3)cs2)CC1 [Example 86, 4-Hydroxy-4-[4-(4-methanesulfonyl-phenoxymethyl)-thiazol-2-yl]-piperidine-1-carboxylic acid tert-butyl ester]	49%
CC(C)(C)OC(=O)N1CCC(F)(c2nc(COc3ccc(S(C)(=O)=O)cc3)cs2)CC1 [Example 87, 4-Fluoro-4-[4-(4-methanesulfonyl-phenoxymethyl)-thiazol-2-yl]-piperidine-1-carboxylic acid tert-butyl ester]	62%
CCc1cnc(N2CCC(F)(c3nc(COc4ccc(S(C)(=O)=O)cc4)cs3)CC2)nc1 [Example 88, 5-Ethyl-2-{4-fluoro-4-[4-(4-methanesulfonyl-phenoxymethyl)-thiazol-2-yl]-piperidin-1-yl}-pyrimidine]	49%
CCc1cnc(N2CCC(F)(c3ncc(COc4ccc(S(C)(=O)=O)cc4)s3)CC2)nc1 [Example 90, 5-Ethyl-2-{4-fluoro-4-[5-(4-methanesulfonyl-phenoxymethyl)-thiazol-2-yl]-piperidin-1-yl}-pyrimidine]	64%
CC(C)(C)OC(=O)N1CCN(c2nc(COc3ccc(S(C)(=O)=O)cc3)cs2)CC1 [Example 91, 4-[4-(4-Methanesulfonyl-phenoxymethyl)-thiazol-2-yl]-piperazine-1-carboxylic acid tert-butyl ester]	28%
CC(C)CS(=O)(=O)N1CCN(c2nc(COc3ccc(S(C)(=O)=O)cc3)cs2)CC1 [Example 92, 1-[4-(4-Methanesulfonyl-phenoxymethyl)-thiazol-2-yl]-4-(2-methyl-propane-1-sulfonyl)-piperazine]	14%
CC(C)(C)OC(=O)N1CCC(c2nc(CNc3ccc(F)nc3)cs2)CC1 [Example 94, 4-{4-[(6-Fluoro-pyridin-3-ylamino)-methyl]-thiazol-2-yl}-piperidine-1-carboxylic acid tert-butyl ester]	48%
CC(C)c1noc(N2CCC(c3nc(COc4ccc(-n5cnnn5)cc4)cs3)CC2)n1 [Example 95, 1-(3-Isopropyl-[1,2,4]oxadiazol-5-yl)-4-[4-(4-tetrazol-1-yl-phenoxymethyl)-thiazol-2-yl]-piperidine]	63%
CCc1noc(N2CCC(c3nc(COc4ccc(-n5cnnn5)cc4)cs3)CC2)n1 [Example 96, 1-(3-Ethyl-[1,2,4]oxadiazol-5-yl)-4-[4-(4-tetrazol-1-yl-phenoxymethyl)-thiazol-2-yl]-piperidine]	79%
c1cc(-n2cnnn2)ccc1OCc1csc(C2CCN(c3nc(C4CC4)no3)CC2)n1 [Example 97, 1-(3-Cyclopropyl-[1,2,4]oxadiazol-5-yl)-4-[4-(4-tetrazol-1-yl-phenoxymethyl)-thiazol-2-yl]-piperidine]	52%
FC(F)(F)c1noc(N2CCC(c3nc(COc4ccc(-n5cnnn5)cc4)cs3)CC2)n1 [Example 98, 4-[4-(4-Tetrazol-1-yl-phenoxymethyl)-thiazol-2-yl]-1-(3-trifluoromethyl-[1,2,4]oxadiazol-5-yl)-piperidine]	78%
NC(=O)N1CCC(c2nc(COc3ccc(-n4cnnn4)cc3)cs2)CC1 [Example 99, 4-[4-(4-Tetrazol-1-yl-phenoxymethyl)-thiazol-2-yl]-piperidine-1-carboxylic acid amide]	67%
